Tested on: M. tuberculosis H37Rv
Assay: BACTEC method of in-vitro screening (growth index, radiometric 7H12 broth)
Assay type: cell-based
Details: 100 μg/mL

Structure (SMILES): OC[C@H]1O[C@@](CO)(O[C@H]2O[C@H](CO)[C@@H](O)[C@H](O)[C@H]2O)[C@@H](O)[C@@H]1O [sucrose]
- inhibition of growth: no inhibition
